Patent publication US20260242388A1, “NBD1 MODULATORS AND METHODS OF USING THE SAME” (Sionna Therapeutics Inc., priority 2023, published 2026)

What was measured:
NBD1 = experiment: Aggregation analysis using differential static light scattering (DSLS), thermal stability of NBD1; assay type: binding, Human; conditions: 100 μM compound; ΔTagg = Tagg minus average Tagg of DMSO control wells; NBD1 0.2 mg/ml
Experimental: Example 23. Aggregation Analysis Using Differential Static Light Scattering (DSLS)
Purified recombinant NBD1 was produced using previously described methods (A. Schmidt, J. L. Mendoza, P. J. Thomas (2011) Biochemical and Biophysical Approaches to Probe CFTR Structure (365-376) M. D. Amaral, K. Kunzelmann (eds.), Cystic Fibrosis, Methods in Molecular Biology 741, Springer Science+Business Media). The effect of test compounds on thermal stability of NBD1 was evaluated by differential static light scattering (DSLS) using the Harbinger Stargazer-384 instrument (Epiphyte Three, Toronto, Canada). Test compounds were dissolved and diluted to desired concentrations in 100% DMSO. The compounds or DMSO controls (100 nL) were stamped into wells of a […] low volume optical plate (Corning Inc., Corning, NY) using the Echo 555 acoustic liquid handler (Labcyte Inc., San Jose, CA).
NBD1 protein was diluted to 0.2 mg/ml in S200 buffer (50 mM Tris-HCl, 150 mM NaCl, 5 mM MgCl2, 2 mM ATP, 2 mM DTT, pH7.6) containing 1% glycerol. 10 μL of protein solution was aliquoted into the 384-well plate harboring the test compounds and 10 μL mineral oil was overlayed onto the protein solution, using the epMotion robotic liquid handler (Eppendorf North America, Hauppauge, NY). After placing into the Stargazer instrument, the plate was heated at 1° C. per minute to 70° C. Images were captured from 25° C. to 70° C. every 0.5° C. At the end of the experiment run, instrument software integrated image files and analyzed data automatically. A linear regression curve was generated for each well, representing the increase in light scattering over time. A temperature of aggregation (Tagg) was calculated based on the inflection point of the curve. To better compare data across experiments the average Tagg for DMSO control wells was calculated and subtracted from values for wells containing compounds to obtain a “ΔTagg” value. These ΔTagg values reflect stabilizing efficacy of the compounds.

CFTR = biological target: T1, CFTR (Homo sapiens, UniProt P13569, DEL508-508); experiment: TECC24 recording of CFTR-mediated transepithelial chloride transport in ΔF508 homozygous CF-HBE cells; assay type: cell-based; conditions: 48 hours incubation, AUC of forskolin-stimulated IEQ, test agent AUC divided by vehicle (DMSO) AUC, primary CF-HBE cells
T1 construct: Primary human bronchial epithelial cells from a ΔF508 homozygous CF donor; host or cells: primary CF-HBE cells, ΔF508 homozygous donor
Experimental: Example 24. TECC24 AUC Fold Over DMSO @10 μM
The effects of a test agent on CFTR-mediated transepithelial chloride transport was measured using TECC24 recording analysis. Test agents were solubilized in DMSO. Solubilized test agents were mixed with incubation medium containing DMEM/F12, Ultroser G (2%; Crescent Chemical, catalog #67042), Hyclone Fetal Clone 11 (2%; GE Healthcare, catalog #SH30066.02), bovine brain extract (0.25%; Lonza, catalog #CC-4098), insulin (2.5 μg/mL), IL-13 (10 ng/mL), hydrocortisone (20 nM), transferrin ([…]), triiodothyronine (500 nM), ethanolamine (250 nM), epinephrine (1.5 μM), phosphoethanolamine (250 nM), and retinoic acid (10 nM). Primary human bronchial epithelial cells from a ΔF508 homozygous CF donor (CF-HBE cells; from University of North Carolina Cystic Fibrosis Tissue Procurement Center), grown on Transwell HTS 24-well cell culture inserts (Costar, catalog #3378), were exposed to test agents or controls dissolved in incubation medium. The CF-HBE cells were cultured at 36.5° C. for 48 hours before TECC24 recordings were performed in the presence or absence of test agent, a positive control or vehicle (DMSO).
Following incubation, the transwell cell culture inserts containing the test agent or control-treated CF-HBE cells were loaded onto a TECC24 apparatus (TECC v7 or MTECC v2; EP Design) to record the transepithelial voltage (VT) and resistance (TEER) using 4 AgCl electrodes per well configured in current-clamp mode. The apical and basolateral bath solutions both contained (in mM) 140 NaCl, 5 KCl, 2 CaCl2), 1 MgCl2, 10 Hepes, and 10 glucose (adjusted to pH 7.4 with NaOH). To inhibit basal Na+ absorption, the ENaC inhibitor benzamil (10 μM) was added to the bath. Then, the adenylate cyclase activator, forskolin (10 μM), was added to the bath to activate CFTR. The forskolin-stimulated Cl− transport was halted by addition of CFTR inhibitor-172 (20 μM) to the bath at the end of the experiment to confirm specificity. VT and TEER recordings were digitally acquired at routine intervals using TECC or MTECC software (EP Design). VT and TEER were transformed into equivalent transepithelial Cl− current (IEQ), and the Area Under the Curve (AUC) of the IEQ time course between forskolin and CFTR inhibitor-172 addition is generated using Excel (Microsoft). Efficacy is expressed as the ratio of the test agent AUC divided by vehicle AUC. EC50s based on AUC are generated using the non-linear regression log(agonist) vs. response function in Prism software (Graphpad) with HillSlope fixed=1.
If a test agent increased the AUC of the forskolin-stimulated IEQ relative to vehicle in CF-HBE cells, and this increase was inhibited by CFTR inhibitor-172, then the test agent was considered a CFTR corrector.

T1 sequence (P13569 with tags, fused parts or gaps DEL508-508): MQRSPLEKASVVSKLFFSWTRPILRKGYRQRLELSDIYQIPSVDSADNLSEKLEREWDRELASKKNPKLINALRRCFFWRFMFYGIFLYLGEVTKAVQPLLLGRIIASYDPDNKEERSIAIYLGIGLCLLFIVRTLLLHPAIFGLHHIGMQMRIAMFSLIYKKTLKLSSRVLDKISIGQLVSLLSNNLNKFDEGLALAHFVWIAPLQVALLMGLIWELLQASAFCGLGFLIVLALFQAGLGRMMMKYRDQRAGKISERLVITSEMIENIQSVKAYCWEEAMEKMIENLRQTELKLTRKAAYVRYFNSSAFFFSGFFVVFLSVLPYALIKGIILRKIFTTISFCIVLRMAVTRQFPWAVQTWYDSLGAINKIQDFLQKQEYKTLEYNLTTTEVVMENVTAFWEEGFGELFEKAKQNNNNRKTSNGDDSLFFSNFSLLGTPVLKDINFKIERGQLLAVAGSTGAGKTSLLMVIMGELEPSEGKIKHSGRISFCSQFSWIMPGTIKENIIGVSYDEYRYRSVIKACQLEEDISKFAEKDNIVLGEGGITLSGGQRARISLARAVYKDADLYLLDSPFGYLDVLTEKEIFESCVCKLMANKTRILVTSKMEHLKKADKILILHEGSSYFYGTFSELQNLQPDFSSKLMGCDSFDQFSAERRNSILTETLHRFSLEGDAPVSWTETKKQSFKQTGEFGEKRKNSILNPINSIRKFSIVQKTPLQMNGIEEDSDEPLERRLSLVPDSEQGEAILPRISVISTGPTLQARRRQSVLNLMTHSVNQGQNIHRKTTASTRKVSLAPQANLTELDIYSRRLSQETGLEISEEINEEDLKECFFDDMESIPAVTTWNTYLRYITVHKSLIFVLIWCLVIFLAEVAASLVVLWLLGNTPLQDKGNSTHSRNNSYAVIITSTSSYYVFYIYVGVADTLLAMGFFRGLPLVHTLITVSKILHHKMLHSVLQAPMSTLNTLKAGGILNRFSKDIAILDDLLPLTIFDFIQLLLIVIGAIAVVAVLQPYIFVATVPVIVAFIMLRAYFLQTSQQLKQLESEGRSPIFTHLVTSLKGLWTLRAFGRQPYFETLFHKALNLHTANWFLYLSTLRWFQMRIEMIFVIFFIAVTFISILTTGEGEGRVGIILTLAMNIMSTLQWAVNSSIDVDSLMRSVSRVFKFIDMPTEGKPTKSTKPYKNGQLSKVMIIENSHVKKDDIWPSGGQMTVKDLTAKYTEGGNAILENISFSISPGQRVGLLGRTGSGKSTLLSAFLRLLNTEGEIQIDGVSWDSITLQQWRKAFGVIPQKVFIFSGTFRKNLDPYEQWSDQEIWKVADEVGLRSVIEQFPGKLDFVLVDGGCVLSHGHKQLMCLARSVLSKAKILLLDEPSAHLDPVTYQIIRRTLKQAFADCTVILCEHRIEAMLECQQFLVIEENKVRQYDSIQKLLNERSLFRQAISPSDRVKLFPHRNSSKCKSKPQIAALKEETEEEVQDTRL

Structure (SMILES) | DSLS NBD1/3D Human Stability delta-T (° C.) @ 100 (μM) (NBD1) | TECC24 @ 10 uM over DMSO (CFTR)
O=C(O)CCc1cccc([C@H]2NCCc3nc(-c4cc(Oc5c(F)cc6[nH]ccc6c5F)ccc4F)[nH]c32)c1F (single isomer, unassigned) [Example 3] | A (T ≥ 8° C.) | A (AUC @10 uM >=12)
O=C(O)Cc1cccc(C2OCCc3cn(-c4cc(Oc5c(F)cc6[nH]ccc6c5F)ccc4F)nc32)c1F (stereo not drawn) [Example 1, 2-(3-(2-(5-((4,6-difluoro-1H-indol-5-yl)oxy)-2-fluorophenyl)-2,4,5,7-tetrahydropyrano[3,4-c]pyrazol-7-yl)-2-fluorophenyl)acetic acid] | B (4-8° C.) | C (AUC @10 uM <= 4)
Cc1c(-c2cc(Oc3c(F)cc4[nH]ccc4c3S(C)(=O)=O)ccc2F)nc2n1CCNC2c1cccc(CC(C)C(=O)O)c1F (stereo not drawn) [Example 8, 3-[2-fluoro-3-[2-[2-fluoro-5-[(6-fluoro-4-methylsulfonyl-1H-indol-5-yl)oxy]phenyl]-3-methyl-5,6,7,8-tetrahydroimidazo[1,2-a]pyrazin-8-yl]phenyl]-2-methyl-propanoic acid] | A (T ≥ 8° C.) | C (AUC @10 uM <= 4)
CC(Cc1cccc(C2c3nc(-c4cc(Oc5c(F)cc6[nH]ccc6c5F)ccc4F)[nH]c3CCN2C)c1F)C(=O)O (stereo not drawn) [Example 11, 3-[3-[2-[5-[(4,6-difluoro-1H-indol-5-yl)oxy]-2-fluoro-phenyl]-5-methyl-1,4,6,7-tetrahydroimidazo[4,5-c]pyridin-4-yl]-2-fluoro-phenyl]-2-methyl-propanoic acid] | A (T ≥ 8° C.) | C (AUC @10 uM <= 4)
O=C(O)CCc1cccc(C2c3nc(-c4cc(Oc5c(F)cc6[nH]ccc6c5F)ccc4F)[nH]c3CCN2CC(F)F)c1F (stereo not drawn) [Example 12, 3-[3-[5-(2,2-difluoroethyl)-2-[5-[(4,6-difluoro-1H-indol-5-yl)oxy]-2-fluoro-phenyl]-1,4,6,7-tetrahydroimidazo[4,5-c]pyridin-4-yl]-2-fluoro-phenyl]propanoic acid] | A (T ≥ 8° C.) | B (AUC @10 uM between 4-12)
CS(=O)(=O)c1c(Oc2ccc(F)c(-c3nc4c([nH]3)CCN(CC(F)F)C4c3cccc(CCC(=O)O)c3F)c2)c(F)cc2[nH]ccc12 (stereo not drawn) [Example 16, 3-[3-[5-(2,2-difluoroethyl)-2-[2-fluoro-5-[(6-fluoro-4-methylsulfonyl-1H-indol-5-yl)oxy]phenyl]-1,4,6,7-tetrahydroimidazo[4,5-c]pyridin-4-yl]-2-fluoro-phenyl]propanoic acid] | A (T ≥ 8° C.) | 
CNC(=O)CCc1cccc(C2c3nc(-c4cc(Oc5c(F)cc6[nH]ccc6c5S(C)(=O)=O)ccc4F)[nH]c3CCN2CC(F)F)c1F (stereo not drawn) [Example 17, 3-[3-[5-(2,2-difluoroethyl)-2-[2-fluoro-5-[(6-fluoro-4-methylsulfonyl-1H-indol-5-yl)oxy]phenyl]-1,4,6,7-tetrahydroimidazo[4,5-c]pyridin-4-yl]-2-fluoro-phenyl]-N-methyl-propanamide] | B (4-8° C.) | 
CCOC(=O)CCc1ccc(C2c3nc(-c4cc(Oc5c(F)cc6[nH]ccc6c5S(C)(=O)=O)ccc4F)[nH]c3CCN2C)s1 (stereo not drawn) [Example 18, ethyl 3-[5-[2-[2-fluoro-5-[(6-fluoro-4-methylsulfonyl-1H-indol-5-yl)oxy]phenyl]-5-methyl-1,4,6,7-tetrahydroimidazo[4,5-c]pyridin-4-yl]-2-thienyl]propanoate] | B (4-8° C.) | 
CN1CCc2[nH]c(-c3cc(Oc4c(F)cc5[nH]ccc5c4S(C)(=O)=O)ccc3F)nc2C1c1ccc(CCC(=O)O)s1 (stereo not drawn) [Example 19, 3-[5-[2-[2-fluoro-5-[(6-fluoro-4-methylsulfonyl-1H-indol-5-yl)oxy]phenyl]-5-methyl-1,4,6,7-tetrahydroimidazo[4,5-c]pyridin-4-yl]-2-thienyl]propanoic acid] | A (T ≥ 8° C.) | 
CN1CCc2[nH]c(-c3cc(Oc4c(F)cc5[nH]ccc5c4F)ccc3F)nc2C1c1cccc(CC(O)CO)c1F (stereo not drawn) [Example 20, 3-[3-[2-[5-[(4,6-difluoro-1H-indol-5-yl)oxy]-2-fluoro-phenyl]-5-methyl-1,4,6,7-tetrahydroimidazo[4,5-c]pyridin-4-yl]-2-fluoro-phenyl]propane-1,2-diol] | B (4-8° C.) | 
CN1CCc2[nH]c(-c3cc(Oc4c(F)cc5[nH]ccc5c4S(C)(=O)=O)ccc3F)nc2C1c1cccc(CC(O)CO)c1F (stereo not drawn) [Example 21, 3-[2-fluoro-3-[2-[2-fluoro-5-[(6-fluoro-4-methylsulfonyl-1H-indol-5-yl)oxy]phenyl]-5-methyl-1,4,6,7-tetrahydroimidazo[4,5-c]pyridin-4-yl]phenyl]propane-1,2-diol] | A (T ≥ 8° C.) | 
CS(=O)(=O)c1c(Oc2ccc(F)c(-c3nc4c([nH]3)C(c3cccc(CCC(=O)O)c3F)NCCC4)c2)c(F)cc2[nH]ccc12 (stereo not drawn) [Example 22, 3-[2-fluoro-3-[2-[2-fluoro-5-[(6-fluoro-4-methylsulfonyl-1H-indol-5-yl)oxy]phenyl]-3,4,5,6,7,8-hexahydroimidazo[4,5-c]azepin-4-yl]phenyl]propanoic acid] | A (T ≥ 8° C.) | C (AUC @10 uM <= 4)
